In data set [1] the target is T1, Trypanosoma brucei REL1 (Trypanosoma brucei brucei, UniProt P86926).
T1 construct: made in house; host or cells: Escherichia coli BL21 (DE3), polycistronic pET-21d construct
The data set can be described thus: biochemical. Type of data set: biochemical. The procedure:
Substrate RNAs were annealed in the presence of 25 mM KCl, 12.5 mM Tris–HCl pH 8.0, 5 mM Mg(OAc)2 and 0.25 mM DTT at a concentration of 1 μM in 10-ml batches by incubation at 70°C for 10 min, followed by slow cooling to room temperature. Annealed substrate was stored at −80°C. For 2400 assays, 2.4 μl 100 mM ATP were added to 12 ml pre-annealed substrate and 5 μl of the mixture dispensed into each well of a 384-well assay plate (Greiner 788075). A total of 50 nl of LOPAC (Sigma-Aldrich; 2 mM in DMSO) or Maybridge Hitfinder (Thermo Fisher Scientific; 2 mM in DMSO) compounds were added per well using a Biomek FX instrument. Recombinant REL1 was diluted in 10% (v/v) glycerol, 300 mM NaCl, 2 mM DTT and 20 mM Tris–HCl pH 6.0 to a final concentration of 300 ng/μl. One hundred twenty microliter REL1 solution were added to 11.88 ml ligation buffer (5 mM KCl; 12.5 mM Tris–HCl pH 6.0; 1 mM Mg(OAc)2; 0.25 mM DTT, 0.2% (w/v) Triton X-100; 0.003% (w/v) Brij 35) and 5 μl of the REL1/ligation buffer mix were added to each well to start the reaction ([…] REL1 per well). A total of 50 μM NSC-42067 served as positive control for inhibition ([34]). As additional controls, each plate included reactions without inhibitor and reactions without REL1. After 30 min incubation at room temperature the reaction was stopped by adding 12.5 μl STOP solution (9 M urea; 20 mM EDTA). After a minimum incubation period of 15 min plates were read using a ratiometric wavelength read (excitation at 485 nm, detection at 665 and 535 nm). HTS was carried out at The Scripps Research Institute, San Diego, CA, USA.
To validate the suitability of the FRET-based REL1 activity assay for HTS, the assay conditions were adapted to 384-well format to facilitate a pilot screen. An ATP concentration of 10 μM was chosen as a compromise between sensitivity to inhibition and robust S:B ratio.
Figure 5. […] Data were plotted as% inhibition compared to controls without inhibitor and fitted to a sigmoidal curve. […] All experiments were carried out under optimized conditions, and means and standard deviations for three replicates are shown.

Data set [2] deals with T1, Trypanosoma brucei REL1. The data set is described as follows: Non-denaturing PAGE of RNA ligation reaction by REL1. It is filed as biochemical. To be noted: increasing concentrations of compound, optimized conditions, Figure S4. The procedure: After ligation reaction, 20% (w/v) polyacrylamide gels were used to separate the RNA molecules by non-denaturing PAGE in Tris-borate-EDTA (TBE) buffer. For denaturing PAGE, gels contained 7 M urea. Gels were analyzed using a Typhoon FLA 7000 (GE Healthcare).
Figure S4. Non-denaturing PAGE showing inhibition of RNA ligation reaction by compound NSC42067. Lanes 1, 2 and 3 were loaded with the 16-nt 6-FAM 5’-RNA substrate, the 13-nt Cy5 3’- RNA substrate and a 29-nt dual 6-FAM/Cy5-labelled DNA oligo, respectively. Lane 4 was left empty.
Lanes 5 to 8 show products from standard reaction conditions and controls. Lanes 9 to 11 show the effects of increasing concentrations of NSC42067 in the assay. Ligation reactions were carried out under optimized conditions. The gel analysis confirmed the following:
Lanes 1 - 3: See Supplementary Figure S1.
Lanes 5 to 7: As before (compare Supplementary Figure S1), incubation of 5’- and 3’-RNAs with […]
The intensity of both bands increased with longer incubation time (compare lane 6 = 5 min with lane 7 = 30 min) and was dependent on the presence of REL1 (lane 5).
Figure S5. Structures of the hit compounds selected for validation.
Figure S6. Scatter plot showing the results of the second pilot screen. Compounds of the Maybridge library were incubated at 10 µM concentration in 384-well plates with REL1 (7.8 nM) in the presence […]
Stop buffer was added after 30 min. […]

The test system of a further data set is T. brucei gambiense. More on the design: method as in PMID 14982785. As to conditions: in vitro; cited from earlier work.
The subject of another data set is human hemopoietic cells. As to conditions: cited from earlier work.
The mark [3] stands for this setting: single-shot HTS, 10 μM final compound concentration, 10 μM ATP, as suggested by HTS.
Where [4] appears, read: dose-response curves, HTS/optimized assay conditions, 10 μM ATP, influenced by unknown percentage of active protein.
[5] abbreviates: dose-response curves, HTS/optimized assay conditions, 10 μM ATP, influenced by unknown percentage of active protein, read-out: IC50.

Counter-ions that a name gives are not always drawn. Like-named read-outs stand apart in the source and are kept apart here. Where only a bound is given, the exact number is not on record here.

T1 sequence (P86926 51-469): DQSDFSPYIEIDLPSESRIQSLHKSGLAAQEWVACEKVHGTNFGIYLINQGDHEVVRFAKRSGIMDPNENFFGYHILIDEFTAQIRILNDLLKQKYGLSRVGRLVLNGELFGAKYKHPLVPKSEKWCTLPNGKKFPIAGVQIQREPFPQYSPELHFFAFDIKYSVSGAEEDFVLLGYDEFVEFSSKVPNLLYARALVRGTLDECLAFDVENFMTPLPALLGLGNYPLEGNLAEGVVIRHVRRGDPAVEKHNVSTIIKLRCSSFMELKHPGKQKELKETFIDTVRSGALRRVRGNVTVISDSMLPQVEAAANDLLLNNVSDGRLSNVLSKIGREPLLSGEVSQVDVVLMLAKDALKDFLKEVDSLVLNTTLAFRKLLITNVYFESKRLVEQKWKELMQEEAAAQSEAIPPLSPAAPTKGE

`CSc1nc(N)c2ncn([C@@H]3O[C@H](COP(=O)(O)OP(=O)(O)O)[C@@H](O)[C@H]3O)c2n1` [2-(Methylthio)adenosine 5′-diphosphate trisodium salt hydrate]: the Inhibition (usually how much of the control response was suppressed) at 10 μM at Trypanosoma brucei REL1 [1] (read-out: Inhibition at 10 μM) came out at 22%. Same read-out and setting: under `Nc1nc(Cl)nc2c1ncn2[C@@H]1O[C@H](COP(=O)(O)OP(=O)(O)OP(=O)(O)O)[C@@H](O)[C@H]1O` [2-Chloroadenosine triphosphate tetrasodium hydrate] stands 18%; under `Cn1c(=O)c2[nH]c(-c3ccc(S(=O)(=O)O)cc3)nc2n(C)c1=O` [8-(p-Sulfophenyl)theophylline hydrate], 23%. On to `CC(=O)OC[C@H]1O[C@@H]([S-])[C@H](OC(C)=O)[C@@H](OC(C)=O)[C@@H]1OC(C)=O.CCP(CC)CC.[Au+]` [Auranofin], for which, on Trypanosoma brucei REL1 [1] (setting [3]), the “Inhibition at 10 μM” value was 24%. As to `OC[C@H]1O[C@H]([S-])[C@H](O)[C@@H](O)[C@@H]1O.[Au+]` [Aurothioglucose hydrate], at Trypanosoma brucei REL1 [1] (setting [4]), the “IC50 (μM)” value is listed as “low μM range”. The IC50 – broadly, the concentration that inhibits the measured activity by half – at Trypanosoma brucei REL1 [1] (setting [5]) came out at 12100 nM. For the same compound, the “Inhibition at 10 μM” value on Trypanosoma brucei REL1 [1] (setting [3]) was 93%. For the compound `NC(=O)c1cc[n+](CC2=C(C(=O)[O-])N3C(=O)[C@@H](NC(=O)[C@@H](c4ccccc4)S(=O)(=O)[O-])[C@H]3SC2)cc1.[Na+]` [Cefsulodin sodium salt hydrate], on Trypanosoma brucei REL1 [1] (setting [3]), the “Inhibition at 10 μM” value was 46%. Same read-out and setting: under `CC(=O)OCC1=C(C(=O)[O-])N2C(=O)[C@@H](NC(=O)CCC[C@@H](N)C(=O)[O-])[C@H]2SC1.[Zn+2]` [Cephalosporin C zinc salt] stands 21%. As for `CC(C)NC(C)Cc1ccc(I)cc1` (stereo not shown) [Iofetamine hydrochloride], on Trypanosoma brucei REL1 [1] (read-out: Inhibition at 10 μM), the Inhibition at 10 μM was 70%. Still for that read-out and setting: under `NC(N)=NOCC[C@H](N)C(=O)O` [L-Canavanine] stands 46%. On to `O=C(O)/C(=C/c1c(C(=O)O)[nH]c2cc(Cl)cc(Cl)c12)c1ccccc1` [MDL 105,519], for which the “Inhibition at 10 μM” value on Trypanosoma brucei REL1 [1] (setting [3]) amounted to 18%. Take `O=[N+]([O-])/C=C/c1ccc2c(c1)OCO2` [MNS]: the “Inhibition at 10 μM” value on Trypanosoma brucei REL1 [1] (setting [3]) was determined as 22%. Turning to `CN(N=O)c1ccc(O)c(O)c1` [Methyl-3,4-dephostatin], the concentration for half-maximal inhibition (IC50) on Trypanosoma brucei REL1 [1] (setting [5]) is more than 50000 nM. Also, the “Inhibition at 10 μM” value at Trypanosoma brucei REL1 [1] (setting [3]) was 97%. Also, the “Inhibition in dose-response curve” value at Trypanosoma brucei REL1 [1] (up to 50 μM concentration) is listed as “no significant inhibition”. For the compound `O.O=c1c(O)c(-c2ccc(O)cc2O)oc2cc(O)cc(O)c12` [Morin hydrate], the “Inhibition at 10 μM” value at Trypanosoma brucei REL1 [1] (setting [3]) was found to be 17%.

In turn, `O=c1c(O)c(-c2cc(O)c(O)c(O)c2)oc2cc(O)cc(O)c12` [Myricetin] showed an IC50 at Trypanosoma brucei REL1 [1] of 1780 nM. The “IC50 (μM)” value against Trypanosoma brucei REL1 [1] (setting [4]) is reported as “low μM range”. Moreover, the Inhibition at 10 μM on Trypanosoma brucei REL1 [1] (read-out: Inhibition at 10 μM) was found to be 100%. With `O=C(Nc1cccc(C(=O)Nc2ccc(S(=O)(=O)[O-])c3cc(S(=O)(=O)[O-])cc(S(=O)(=O)[O-])c23)c1)Nc1cccc(C(=O)Nc2ccc(S(=O)(=O)[O-])c3cc(S(=O)(=O)[O-])cc(S(=O)(=O)[O-])c23)c1.[Na+].[Na+].[Na+].[Na+].[Na+].[Na+]` [NF 023 hydrate], the “IC50 (μM)” value against Trypanosoma brucei REL1 [1] (setting [4]) is “low μM range”. At Trypanosoma brucei REL1 [1] (setting [5]), the concentration for half-maximal inhibition (IC50) was 1950 nM. Moreover, the “Inhibition at 10 μM” value on Trypanosoma brucei REL1 [1] (setting [3]) is reported as 79%.

For the compound `O=C(O)c1cc(O)c(O)c(OC(=O)c2cc(O)c(O)c(O)c2CNc2ccc3cc(S(=O)(=O)O)cc(S(=O)(=O)O)c3c2)c1` [NSC42067], the IC50 on Trypanosoma brucei REL1 [1] (setting [5]) turned out to be 1400 nM. In addition, the “Effect on formation of the ligation product (gel)” value on Trypanosoma brucei REL1 [2] is recorded as “inhibit formation of the ligation product”. Consider `C#CCN[C@H](C)Cc1ccccc1.Cl` [R-(–)-Desmethyldeprenyl hydrochloride], for which the “Inhibition at 10 μM” value at Trypanosoma brucei REL1 [1] (setting [3]) stood at 38%. In turn, `Cc1ccc(C(=O)Nc2ccc(S(=O)(=O)O)c3cc(S(=O)(=O)O)cc(S(=O)(=O)O)c23)cc1NC(=O)c1cccc(NC(=O)Nc2cccc(C(=O)Nc3cc(C(=O)Nc4ccc(S(=O)(=O)O)c5cc(S(=O)(=O)O)cc(S(=O)(=O)O)c45)ccc3C)c2)c1` [Suramin sodium salt] gave an IC50 against Trypanosoma brucei REL1 [1] of 2940 nM. The “IC50 (μM)” value on Trypanosoma brucei REL1 [1] (setting [4]) is “low μM range”. The Inhibition at 10 μM on Trypanosoma brucei REL1 [1] (read-out: Inhibition at 10 μM) came to 66%.

Regarding `N#C/C(=C\c1ccc(O)c(O)c1)C(=O)NCCCNC(=O)/C(C#N)=C/c1ccc(O)c(O)c1` [Tyrphostin AG 537], on Trypanosoma brucei REL1 [1] (setting [4]), the “IC50 (μM)” value is recorded as “low μM range”. Further, on Trypanosoma brucei REL1 [1] (setting [5]), the concentration for half-maximal inhibition (IC50) turned out to be 250 nM. Also, the “Inhibition at 10 μM” value at Trypanosoma brucei REL1 [1] (setting [3]) is on record as 93%. Regarding `CC(C)N(CCC(=O)c1ccc2ccccc2c1)Cc1ccccc1.Cl` [ZM 39923 hydrochloride], at Trypanosoma brucei REL1 [1] (setting [3]), the “Inhibition at 10 μM” value was found to be 26%. Same read-out and setting: to `N.N.[Cl][Pt][Cl]` [cis-Diammineplatinum(II) dichloride] belongs 14%. For `O=c1c(O)c(-c2ccc(O)c(O)c2)oc2cc(O)cc(O)c12` [quercertin], in the data set with T. brucei gambiense, the LD50 is 10 µM. Besides, in the data set with human hemopoietic cells, the “Effect on human hemopoietic cells” value is “without affecting human hemopoietic cells”. Take `CC1(C)CCC2=C(O1)c1ccccc1C(=O)C2=O` [β-Lapachone]: the Inhibition at 10 μM at Trypanosoma brucei REL1 [1] (read-out: Inhibition at 10 μM) amounted to 48%.

Source of the values: article PMC4756849, “A novel high-throughput activity assay for the Trypanosoma brucei editosome enzyme REL1 and other RNA ligases” (Nucleic Acids Research, 2015).
